Patent US11124516B2, “Pyrrolo[1,2-A]pyrimidinyl carboxamide compounds and their use in the treatment of medical disorders” (Bial—Biotech Investments, Inc., priority 2016, dated 2021)
In brackets after ≈: the same amount, converted by molar mass.

Tests used:
[1] = Compound solubility in water; assay type: physicochemical
[2] = biological target: T1, glucocerebrosidase (Gcase) (Homo sapiens, UniProt P04062); assay: Glucocerebrosidase (Gcase) activation assay, 4-methylumbelliferyl-beta-D-glucopyranoside substrate, fluorescence; assay type: biochemical; settings: 10 nM GCase, 100 nM saposin C; for activation at 0.1 µM / activation at 1 µM: 0.25 h; for activation at 0.1 µM: pH 4.7, test compound at 0.1 μM, read-out: Percent Gcase Activation 0.1 μM Test Compound; for activation at 1 µM: pH 4.7, test compound at 1.0 μM, read-out: Percent Gcase Activation 1 μM Test Compound
T1 sequence (P04062 40-536): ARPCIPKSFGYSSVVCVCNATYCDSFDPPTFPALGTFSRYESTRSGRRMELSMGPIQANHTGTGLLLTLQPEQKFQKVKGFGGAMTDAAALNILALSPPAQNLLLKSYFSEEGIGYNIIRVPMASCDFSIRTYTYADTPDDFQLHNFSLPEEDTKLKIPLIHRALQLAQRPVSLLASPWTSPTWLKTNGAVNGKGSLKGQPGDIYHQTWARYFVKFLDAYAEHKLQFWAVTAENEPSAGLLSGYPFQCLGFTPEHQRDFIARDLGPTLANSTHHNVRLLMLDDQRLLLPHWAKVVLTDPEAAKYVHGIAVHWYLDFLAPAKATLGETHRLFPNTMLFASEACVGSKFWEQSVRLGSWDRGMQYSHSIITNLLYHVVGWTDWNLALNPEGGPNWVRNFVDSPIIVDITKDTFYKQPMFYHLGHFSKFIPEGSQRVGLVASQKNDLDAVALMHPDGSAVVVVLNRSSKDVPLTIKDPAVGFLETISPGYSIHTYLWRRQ
Method: The ability of exemplary compounds to activate glucocerebrosidase (Gcase) was measured.
A 484 μL aliquot of a 1.0 mg/mL solution of phosphatidylserine (PS) (Sigma P7769) in chloroform was evaporated under a stream of nitrogen for 1 hour. The lipid film was dissolved over 4 minutes of vigorous vortexing in 40 mL of 176 mM K2HPO4/50 mM citric acid (pH 4.7) containing 7.5 μL of triton X-100, resulting in a mixed micellar preparation with a composition of 0.32 mM triton and 0.37 mol % PS. 4-Methylumbelliferyl-beta-D-glucopyranoside (ACROS-337025000) was dissolved in the micellar solution to a final concentration of 2 mM for use as the reaction substrate.
Test compounds were diluted to the desired concentrations with dimethylsulfoxide (DMSO) from 10 mM stocks, and 0.41 μL of the DMSO compound mixture was added to 100 μL of micellar solution containing 10 nM GCase and 100 nM saposin C (Enzo ALX-201-262-C050). Pre-incubation was allowed to occur for 30 minutes at room temperature, after which the reaction was initiated by combining 25 μL of substrate solution with 25 μL of compound/GCase/saposin mixture. The reaction proceeded for 15 minutes at room temperature and was stopped by adding 150 μL of 1M glycine, pH 12.5. The endpoint of the reaction was monitored by measuring fluorescence intensity (excitation: 365 nm; emission: 440 nm) on a SpectraMax i3 instrument (Molecular Devices). Test compounds were screened at 1.0 and 0.1 μM final concentration, and subsequent 8-point dose response curves were obtained using 3-fold dilutions from a maximum final concentration of 5 μM.
For experiments in which the test compound was used at a concentration of 1.0 μM, the symbol “+” indicates less than 30% Gcase activation; the symbol “++” indicates Gcase activation in the range of 30% up to 60%; and the symbol “+++” indicates Gcase activation greater than 60%. For experiments in which the test compound was used at a concentration of 0.1 μM, the symbol “*” indicates less than 10% Gcase activation; the symbol “**” indicates Gcase activation in the range of 10% up to 20%; and the symbol “***” indicates greater than 20% Gcase activation.

SMILES | solubility [1] | activation at 0.1 µM [2] | activation at 1 µM [2] | Compound Solubility in Water [1] | Percent Gcase Activation 0.1 μM Test Compound ([2]; test compound at 0.1 μM, pH 4.7) | Percent Gcase Activation 1 μM Test Compound ([2]; test compound at 1.0 μM, pH 4.7)
Cc1cc(N2CCOCC2)nc2c(C(=O)NC(C)(C)C3CC3)ccn12 [III-35] | 14 µg/mL (≈ 40.9 µM) | 10 to 20% | > 60% | – | – | –
Cc1cc(C2CCOCC2)nc2c(C(=O)NC(C)(C)C3CC3)ccn12 [III-36] | 21.3 µg/mL (≈ 62.4 µM) | < 10% | 30 to 60% | – | – | –
Cc1cc(NC2CCOCC2)nc2c(C(=O)NC(C)(C)C3CC3)ccn12 [III-38] | 10.1 µg/mL (≈ 28.3 µM) | 10 to 20% | > 60% | – | – | –
Cc1cc(-c2ccccn2)nc2c(C(=O)NC(C)(C)C3CC3)ccn12 [III-39] | 0.7 µg/mL (≈ 2.09 µM) | > 20% | > 60% | – | – | –
Cc1cc(-c2ccncc2)nc2c(C(=O)NC(C)(C)C3CC3)ccn12 [III-40] | 3.5 µg/mL (≈ 10.5 µM) | 10 to 20% | > 60% | – | – | –
Cc1cc(-c2cccnc2)nc2c(C(=O)NC(C)(C)C3CC3)ccn12 [III-41] | 2.5 µg/mL (≈ 7.48 µM) | > 20% | > 60% | – | – | –
Cc1cc(-c2cncnc2)nc2c(C(=O)NC(C)(C)C3CC3)ccn12 [III-42] | 3.4 µg/mL (≈ 10.1 µM) | 10 to 20% | > 60% | – | – | –
Cc1cc(N2CCC(F)(F)CC2)nc2c(C(=O)NC(C)(C)C3CC3)ccn12 [III-44] | 1.4 µg/mL (≈ 3.72 µM) | 10 to 20% | > 60% | – | – | –
Cc1cc(NC2CC3CCC(C2)O3)nc2c(C(=O)NC(C)(C)C3CC3)ccn12 (stereo not drawn) [III-45] | 12.3 µg/mL (≈ 32.2 µM) | < 10% | 30 to 60% | – | – | –
CC(C)(NC(=O)c1ccn2ccc(-c3ccc(F)cc3)nc12)C1CC1 [III-46] | 0.3 µg/mL (≈ 0.889 µM) | < 10% | 30 to 60% | – | – | –
C[C@H](NC(=O)c1ccn2ccc(-c3ccc(F)cc3)nc12)C1CC1 [III-47] | 0.1 µg/mL (≈ 0.309 µM) | < 10% | 30 to 60% | – | – | –
CO[C@H]1CC[C@H](NC(=O)c2ccn3c(C)cc(-c4ccc(F)cc4)nc23)CC1 [III-48] | 0.9 µg/mL (≈ 2.36 µM) | 10 to 20% | > 60% | – | – | –
C[C@H](NC(=O)c1ccn2cc(-c3ccc(F)cc3)cnc12)C1CC1 [III-49] | 0.3 µg/mL (≈ 0.928 µM) | < 10% | < 30% | – | – | –
Cc1c(-c2ccc(F)cc2)cnc2c(C(=O)N[C@@H](C)C3CC3)ccn12 [III-51] | 0.1 µg/mL (≈ 0.296 µM) | < 10% | < 30% | – | – | –
Cc1nc2c(C(=O)N[C@@H](C)C3CC3)ccn2c(C)c1-c1ccc(F)cc1 [III-52] | 1.7 µg/mL (≈ 4.84 µM) | < 10% | < 30% | – | – | –
Cc1cc(-c2cccnc2)nc2c(C(=O)NC(C3CC3)C(F)(F)F)ccn12 (stereo not drawn) [III-55] | 2.9 µg/mL (≈ 7.75 µM) | > 20% | > 60% | – | – | –
Cc1cc(-c2cccnc2)nc2c(C(=O)N[C@H]3CC[C@H](OC(C)(C)C)CC3)ccn12 [III-56] | 11.6 µg/mL (≈ 28.5 µM) | 10 to 20% | > 60% | – | – | –
CCCO[C@H]1CC[C@H](NC(=O)c2ccn3c(C)cc(-c4cccnc4)nc23)CC1 [III-57] | 14.9 µg/mL (≈ 38 µM) | 10 to 20% | > 60% | – | – | –

SMILES | solubility [1] | activation at 0.1 µM [2] | activation at 1 µM [2] | Compound Solubility in Water [1] | Percent Gcase Activation 0.1 μM Test Compound ([2]; test compound at 0.1 μM, pH 4.7) | Percent Gcase Activation 1 μM Test Compound ([2]; test compound at 1.0 μM, pH 4.7)
Cc1cc(-c2cccnc2)nc2c(C(=O)N[C@H]3CC[C@H](OCC(C)C)CC3)ccn12 [III-58] | 1.9 µg/mL (≈ 4.67 µM) | > 20% | > 60% | – | – | –
CCCCO[C@H]1CC[C@H](NC(=O)c2ccn3c(C)cc(-c4cccnc4)nc23)CC1 [III-59] | 1.9 µg/mL (≈ 4.67 µM) | > 20% | > 60% | – | – | –
Cc1cc(-c2cccnc2)nc2c(C(=O)N[C@H]3CC[C@H](OCC(C)(C)C)CC3)ccn12 [III-60] | 1.3 µg/mL (≈ 3.09 µM) | > 20% | > 60% | – | – | –
C#Cc1ccc(NC(=O)c2ccn3c(C)cc(-c4cccnc4)nc23)cc1 [III-61] | 1.2 µg/mL (≈ 3.41 µM) | > 20% | > 60% | – | – | –
Cc1cc(C)n2ccc(C(=O)NC(C)C3CCCCC3)c2n1 (stereo not drawn) [III-62] | 5.1 µg/mL (≈ 17 µM) | > 20% | > 60% | – | – | –
Cc1cc(C)n2ccc(C(=O)NC(C)C3CCCCC3)c2n1 (stereo not drawn) [III-63] | – | – | – | 4.2 µg/mL | *** (greater than 20% Gcase activation) | +++ (Gcase activation greater than 60%)
Cc1cc(C)n2ccc(C(=O)N[C@@H](C)C3CC3)c2n1 [III-64] | 21.7 µg/mL (≈ 84.3 µM) | > 20% | > 60% | – | – | –
Cc1cc(C)n2ccc(C(=O)N[C@H](C)C3CC3)c2n1 [III-65] | 20.7 µg/mL (≈ 80.4 µM) | < 10% | 30 to 60% | – | – | –
Cc1nc2c(C(=O)N[C@H]3CC[C@H](OC(C)(C)C)CC3)ccn2c2c1CCC2 [III-70] | 1.5 µg/mL (≈ 4.06 µM) | < 10% | < 30% | – | – | –
Cc1c2c(nc3c(C(=O)N[C@H]4CC[C@H](OC(C)(C)C)CC4)ccn13)CCC2 [III-71] | 8 µg/mL (≈ 21.7 µM) | < 10% | 30 to 60% | – | – | –
Cc1nc2c(C(=O)NC(C)(C)C3CC3)ccn2c2c1CCC2 [III-72] | 1.5 µg/mL (≈ 5.04 µM) | < 10% | > 60% | – | – | –
Cc1c2c(nc3c(C(=O)NC(C)(C)C4CC4)ccn13)CCC2 [III-73] | 0.9 µg/mL (≈ 3.03 µM) | 10 to 20% | > 60% | – | – | –
Cc1cc(C)n2ccc(C(=O)NC(=O)C3CC3)c2n1 [III-74] | 24.8 µg/mL (≈ 96.4 µM) | < 10% | < 30% | – | – | –
COCc1cc(C)n2ccc(C(=O)N[C@H]3CC[C@H](OCC(C)(C)C)CC3)c2n1 [IV-1] | 2.5 µg/mL (≈ 6.45 µM) | > 20% | > 60% | – | – | –
COCc1cc(C)nc2c(C(=O)N[C@H]3CC[C@H](OCC(C)(C)C)CC3)ccn12 [IV-2] | 4.2 µg/mL (≈ 10.8 µM) | > 20% | > 60% | – | – | –
COCc1cc(C)nc2c(C(=O)N[C@H]3CC[C@H](OCC(C)C)CC3)ccn12 [IV-3] | 15.9 µg/mL (≈ 42.6 µM) | > 20% | > 60% | – | – | –
COCc1cc(C)n2ccc(C(=O)N[C@H]3CC[C@H](OCC(C)C)CC3)c2n1 [IV-4] | 16.9 µg/mL (≈ 45.2 µM) | 10 to 20% | > 60% | – | – | –
